From ChEMBL document CHEMBL1649379, “Synthesis of a novel ester of hydroxytyrosol and α-lipoic acid exhibiting an antiproliferative effect on human colon cancer HT-29 cells” (2011)

Columns and labels:
Assay type in all cases: functional
HT-29 [1] = test: Induction of cell cycle arrest in human HT-29 cells assessed as accumulation at S phase at 150 uM after 24 hrs by flow cytometry (reference value: 21+/-0.9%)
HT-29 [2] = test: Growth inhibition of human HT-29 cells at 150 uM after 48 hrs by BrdU-ELISA assay; conditions: HT-29, 48 h, read-out: GI
HT-29 [3] = test: Induction of cell cycle arrest in human HT-29 cells assessed as accumulation at G2/M phase at 300 uM after 24 hrs by flow cytometry (reference value: 17.6+/-1%)
HT-29 [4] = test: Induction of cell cycle arrest in human HT-29 cells assessed as accumulation at G0/G1 phase at 150 uM after 24 hrs by flow cytometry (reference value: 61.4+/-1.1%)
HT-29 [5] = test: Growth inhibition of human HT-29 cells at 150 uM after 24 hrs by BrdU-ELISA assay; conditions: HT-29, 24 h, read-out: GI
HT-29 [6] = test: Induction of cell cycle arrest in human HT-29 cells assessed as accumulation at G0/G1 phase at 300 uM after 24 hrs by flow cytometry (reference value: 61.4+/-1.1%)
HT-29 [7] = test: Growth inhibition of human HT-29 cells at 100 uM after 48 hrs by BrdU-ELISA assay; conditions: HT-29, 48 h, read-out: GI
HT-29 [8] = test: Growth inhibition of human HT-29 cells at 100 uM after 24 hrs by BrdU-ELISA assay; conditions: HT-29, 24 h, read-out: GI
HT-29 [9] = test: Growth inhibition of human HT-29 cells at 300 uM after 24 hrs by BrdU-ELISA assay; conditions: HT-29, 24 h, read-out: GI
HT-29 [10] = test: Induction of cell cycle arrest in human HT-29 cells assessed as accumulation at G2/M phase at 150 uM after 24 hrs by flow cytometry (reference value: 17.6+/-1%)
HT-29 [11] = test: Induction of cell cycle arrest in human HT-29 cells assessed as accumulation at S phase at 100 uM after 24 hrs by flow cytometry (reference value: 21+/-0.9%)
HT-29 [12] = test: Induction of cell cycle arrest in human HT-29 cells assessed as accumulation at G0/G1 phase at 100 uM after 24 hrs by flow cytometry (reference value: 61.4+/-1.1%)
HT-29 [13] = test: Induction of cell cycle arrest in human HT-29 cells assessed as accumulation at S phase at 300 uM after 24 hrs by flow cytometry (reference value: 21+/-0.9%)
HT-29 [14] = test: Growth inhibition of human HT-29 cells at 300 uM after 48 hrs by BrdU-ELISA assay; conditions: HT-29, 48 h, read-out: GI
HT-29 [15] = test: Induction of cell cycle arrest in human HT-29 cells assessed as accumulation at G2/M phase at 100 uM after 24 hrs by flow cytometry (reference value: 17.6+/-1%)

Compound | Activity (HT-29 [1]) [%] | inhibition of growth at 150 µM (HT-29 [2]) [%] | Activity (HT-29 [3]) [%] | Activity (HT-29 [4]) [%] | inhibition of growth at 150 µM (HT-29 [5]) [%] | Activity (HT-29 [6]) [%] | inhibition of growth at 100 µM (HT-29 [7]) [%] | inhibition of growth at 100 µM (HT-29 [8]) [%] | inhibition of growth at 300 µM (HT-29 [9]) [%] | Activity (HT-29 [10]) [%] | Activity (HT-29 [11]) [%] | Activity (HT-29 [12]) [%] | Activity (HT-29 [13]) [%] | inhibition of growth at 300 µM (HT-29 [14]) [%] | Activity (HT-29 [15]) [%]
O=C(CCCCC1CCSS1)OCCc1ccc(O)c(O)c1 (stereo not given) | 18.1 | 70.6 | 56.8 | 29.3 | 69.6 | 28.2 | 45.6 | 33.9 | 83.9 | 50.5 | 17.7 | 31.3 | 14 | 83.6 | 49.7
O=C(O)CCCCC1CCSS1 (stereo not drawn) [LIPOIC ACID, ALPHA] | 20.1 | 18.4 | 40.3 | 45.6 | 25.5 | 37.5 | 6.5 | 17.8 | 24 | 32.1 | 19.2 | 43.5 | 19.3 | 19.5 | 36.9
OCCc1ccc(O)c(O)c1 [HYDROXYTYROSOL] | 20.3 | 29.3 | 43.5 | 40.3 | 37.5 | 34.4 | 17.3 | 20.7 | 64.2 | 36.7 | 22.5 | 40.5 | 20.1 | 53.2 | 35
